According to patent publication US12690587B2, “Animal and insect repellent and method of its use” (Cranberry IP, LLC, priority 2023, dated 2026):

System: white tail deer
Test: 12-month field test of repellent at twenty-one monitored test sites (tracks and browsing damage)
Format: in vivo, Odocoileus virginianus
Details: within 60-day application periods; regular and consistent use
Experimental: The performance of repellent composition of the present invention was evaluated by the inventor of the present invention in a study that lasted for approximately one year using twenty-one monitored test sites to field test the effectiveness of the composition that included butyl lactate. These sites each had three monitored areas: formulation with butyl lactate (1), same formulation without butyl lactate (2), and control (3), each approximately 100-200 square feet in size. Due to the proximity of the sites, the range of climates, food sources and types of species were consistent, making it easy to assess the repellent's effectiveness, which was evaluated by means of visual inspections and rating for animal tracks around and in the areas, and browsing damage to the plant material.

## CCCCOC(=O)C(C)O (stereo not shown) [Butyl lactate]
  duration of decreased white tail deer damage, presence and entry into treated areas: more than 30 days
